Active and inactive are the calls of the source. The calls are words filed in the database; no cut-off is given here.
What was measured:
[1] = Antioxidant activity assessed as trolox equivalents of ABTS radical scavenging activity by TEAC assay; assay type: functional
[2] = Cytotoxicity against HMEC1 cells after 6 hrs by MTT assay; assay type: cell-based; conditions: human, hmec-1, 6 h
[3] = Inhibition against UV-induced LDL oxidation in cell-free system at 10 uM after 2 hrs by TBARS assay; design: scale not given: the % may be the effect or the level left
[4] = Inhibition of cell-mediated LDL oxidation in HMEC1 cells at 10 uM after 6 hrs by TBARS assay; design: scale not given: the % may be the effect or the level left
[5] = Antioxidant activity against superoxide radical generation in HMEC1 cells; assay type: functional, Homo sapiens, HMEC-1
[6] = Inhibition against copper-induced LDL oxidation in cell-free system at 10 uM after 3 hrs by TBARS assay; design: scale not given: the % may be the effect or the level left
[7] = tested on: Radical scavenging activity; assay: Antioxidant activity assessed as DPPH radical scavenging activity after; assay type: functional
HMEC-1 = assay: Cytoprotective activity against 4HNE-induced cytotoxicity in HMEC1 cells at 25 uM by MTT assay; assay type: functional, cell-based; conditions: Homo sapiens

IC50 [7] [µM]	SMILES	Activity [1]	Activity [2] [%]	Activity [3] [%]	Activity [4] [%]	Activity [5] [%]	Activity [6] [%]	Activity (HMEC-1)
	COc1cc(/C=N/Nc2nncc3ccccc23)cc(OC)c1O.Cl	0.75	66	18	4	30	5	
18	COc1cc(/C=N/NC(=O)c2cccnc2)cc(OC)c1O	1.25	60	20	5	44	77	
	COc1cc(/C=N/Nc2ccc(F)cc2)cc(OC)c1O	1.02	58	18	5	57	6	
	COc1cc(/C=N/NC(=N)N)cc(OC)c1O.Cl	0.69	70	24	10	36	6	
17	COc1cc(/C=N/NC(=O)c2ccncc2)cc(OC)c1O	1.25	65	18	7	22	85	
	COc1cc(/C=N/Nc2c(Cl)cc(C(F)(F)F)cc2Cl)cc(OC)c1O	0.98	74	15	4	42	3	
	COc1cc(/C=N/NC(=O)OCc2ccccc2)cc(OC)c1O	1.11	69	18	3	50	6	
	COc1cc(/C=N/Nc2ccccc2F)cc(OC)c1O	0.78	79	16	13	33	4	
	Cc1c(C)c2c(c(C)c1O)CCC(C)(C(=O)O)O2 (centres undefined) [TROLOX]		57	18	3	5	6	
	NNC(=O)c1ccncc1							inactive
	COc1cc(/C=N/NC(=O)c2cc(C)n[nH]2)cc(OC)c1O	1.15	69	17	3	50	4	
	COc1cc(C(=O)O)cc(OC)c1O							inactive
	COc1cc(/C=N/Nc2nc3ccccc3s2)cc(OC)c1O	0.89	55	17	3	56	2	
